The target in the first test is T1, PAK4 Kinase domain (PAK4 KD) (Homo sapiens, UniProt O96013).
T1 construct: Cloning, expression, and purification of recombinant PAK4 Kinase domain (PAK4 KD); His tag (pET28a(+)/pET24a(+), Ni-NTA purification) (N, cleaved yes); GST (pGST4.5, glutathione column) (N, cleaved yes); made in house; host or cells: E. coli BL21(DE3)
T1 sequence (O96013 321-572 limits assumed): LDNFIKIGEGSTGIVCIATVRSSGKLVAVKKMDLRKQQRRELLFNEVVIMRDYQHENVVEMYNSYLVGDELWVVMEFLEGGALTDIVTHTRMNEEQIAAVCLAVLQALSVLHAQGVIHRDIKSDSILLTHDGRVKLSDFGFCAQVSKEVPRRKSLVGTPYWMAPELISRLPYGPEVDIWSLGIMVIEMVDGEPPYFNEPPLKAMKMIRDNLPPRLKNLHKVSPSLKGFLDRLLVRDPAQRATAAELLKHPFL
In words: PAK4 kinase domain enzymatic assay (PK/LDH-coupled, Ki). Format: biochemical.
Details: not given
In the case of `Cc1cc(C(=O)Nc2n[nH]c3c2CN(C(=O)NC2CC2c2ccccc2)C3(C)C)n(C)n1` (stereo not drawn) [Example 113, 3-(1,3-dimethyl-1H-pyrazole-5-carboxamido)-6,6-dimethyl-N-[trans-(2-phenylcyclopropyl)]pyrrolo[3,4-c]pyrazole-5(1H,4H,6H)-carboxamide], testing at 1 µM gave an inhibition of 65%.

For the molecule `CCc1ccc(C(=O)Nc2n[nH]c3c2CN(C(=O)NC2CC2c2ccccc2)C3(C)C)cc1` (stereo not drawn) [Example 114, 3-(4-ethylbenzamido)-6,6-dimethyl-N-[trans-(2-phenylcyclopropyl)]pyrrolo[3,4-c]pyrazole-5(1H,4H,6H)-carboxamide], the inhibition – broadly, the change of the read-out against control, counted positive when it falls – at 1 µM is 70%.

`CN(C)C[C@@H](NC(=O)N1Cc2c(NC(=O)c3cnccn3)n[nH]c2C1(C)C)c1ccccc1` [Example 111, (S)-N-(2-(dimethylamino)-1-phenylethyl)-6,6-dimethyl-3-(pyrazine-2-carboxamido)pyrrolo[3,4-c]pyrazole-5 (1H,4H,6H)-carboxamide]: the inhibition at 1 µM came out at 42%.

On to `CN(C)C[C@@H](NC(=O)N1Cc2c(NC(=O)C3COc4ccccc4O3)n[nH]c2C1(C)C)c1ccccc1` (stereo partly drawn) [Example 112, 3-(2,3-dihydrobenzo[b][1,4]dioxine-2-carboxamido)-N-((S)-2-(dimethylamino)-1-phenylethyl)-6,6-dimethylpyrrolo[3,4-c]pyrazole-5(1H,4H,6H)-carboxamide], for which at 1 µM the inhibition was 66%.

The same test, now with this note: PAK4 Kinase Domain.
Consider `CN(C)C[C@H](Cc1ccccc1)OC(=O)N1Cc2c(NC(=O)c3ccc(F)cc3)n[nH]c2C1(C)C` [Example 76, (1S)-1-benzyl-2-(dimethylamino)ethyl 3-[(4-fluorobenzoyl)amino]-6,6-dimethyl-4,6-dihydropyrrolo[3,4-c]pyrazole-5(1H)-carboxylate], for which the Ki (as a rule, the dissociation constant of the complex between target and ligand, obtained from inhibition or displacement) worked out at 468 nM.

Regarding `CN(C)CC(CC(=O)N1Cc2c(NC(=O)c3ccccc3)n[nH]c2C1(C)C)c1ccc(Cl)cc1` (centres unmarked) [Example 67, N-{5-[3-(4-chlorophenyl)-4-(dimethylamino)butanoyl]-6,6-dimethyl-1,4,5,6-tetrahydropyrrolo[3,4-c]pyrazol-3-yl}benzamide], the affinity, expressed as Ki, was 193 nM.

In the case of `CC1(C)c2[nH]nc(NC(=O)c3ccc(F)cc3)c2CN1C(=O)NC(CN1CCOCC1)c1ccccc1` (centres unmarked) [Example 102, 3-[(4-fluorobenzoyl)amino]-6,6-dimethyl-N-(2-morpholin-4-yl-1-phenylethyl)-4,6-dihydropyrrolo[3,4-c]pyrazole-5(1H)-carboxamide], the affinity, expressed as Ki, was 621 nM. This Ki is about 3.2-fold higher than that of the molecule before.

`CCC(NC(=O)N1Cc2c(NC(=O)c3ccccc3)n[nH]c2C1(C)C)c1ccccc1` (centres unmarked) [Example 62, 3-(benzoylamino)-6,6-dimethyl-N-(1-phenylpropyl)-4,6-dihydropyrrolo[3,4-c]pyrazole-5(1H)-carboxamide] yielded a Ki of 308 nM. Against the preceding molecule, the Ki is about 2-fold lower.

The molecule `CN(C)[C@@H](COC(=O)N1Cc2c(NC(=O)c3ccc(F)cc3)n[nH]c2C1(C)C)c1ccccc1` [Example 41, (R)-2-(dimethylamino)-2-phenylethyl 3-[(4-fluorobenzoyl)amino]-6,6-dimethyl-4,6-dihydropyrrolo[3,4-c]pyrazole-5(1H)-carboxylate] displayed a Ki of 786 nM.

Molecule `CC1(C)c2[nH]nc(NC(=O)c3ccc(F)cc3)c2CN1C(=O)N[C@H](CN)c1ccccc1` [Example 115, N-[(1S)-2-amino-1-phenylethyl]-3-[(4-fluorobenzoyl)amino]-6,6-dimethyl-4,6-dihydropyrrolo[3,4-c]pyrazole-5(1H)-carboxamide] registered an inhibition constant Ki of 20.8 nM. This Ki is about 38-fold lower than that of the molecule before.

Molecule `CC(C)C[C@@H](CN(C)C)OC(=O)N1Cc2c(NC(=O)c3ccccc3F)n[nH]c2C1(C)C` [Example 78, (1S)-1-[(dimethylamino)methyl]-3-methylbutyl 3-[(2-fluorobenzoyl)amino]-6,6-dimethyl-4,6-dihydropyrrolo[3,4-c]pyrazole-5(1H)-carboxylate] gave a Ki of 284 nM.

Take `CC1(C)c2[nH]nc(NC(=O)c3ccccc3)c2CN1C(=O)N[C@@H]1C[C@H]1c1ccccc1` (relative stereo) [Example 58, 3-(benzoylamino)-6,6-dimethyl-N-[trans-2-phenylcyclopropyl]-4,6-dihydropyrrolo[3,4-c]pyrazole-5(1H)-carboxamide]: the Ki was 96 nM.

Take `CN(C)C[C@@H](OC(=O)N1Cc2c(NC(=O)c3ccccc3F)n[nH]c2C1(C)C)C1CCCCC1` [Example 33, (1S)-1-cyclohexyl-2-(dimethylamino)ethyl 3-[(2-fluorobenzoyl)amino]-6,6-dimethyl-4,6-dihydropyrrolo[3,4-c]pyrazole-5(1H)-carboxylate]: the Ki amounted to 220 nM.

Consider `CC[C@@H](NC(=O)N1Cc2c(NC(=O)c3ccccc3)n[nH]c2C1(C)C)c1ccccc1` [Example 63, 3-(benzoylamino)-6,6-dimethyl-N-[(1R)-1-phenylpropyl]-4,6-dihydropyrrolo[3,4-c]pyrazole-5(1H)-carboxamide], for which the Ki was 178 nM.

On to `COc1ccc(C(=O)Nc2n[nH]c3c2CN(C(=O)N[C@@H]2C[C@H]2c2ccccc2)C3(C)C)cc1OC` (relative stereo) [Example 109, 3-[(3,4-dimethoxybenzoyl)amino]-6,6-dimethyl-N-[trans-2-phenyl-cyclopropyl]-4,6-dihydropyrrolo[3,4-c]pyrazole-5(1H)-carboxamide], for which the Ki was found to be 176 nM.

`COC[C@@H](NC(=O)N1Cc2c(NC(=O)c3ccccc3)n[nH]c2C1(C)C)c1ccccc1` [Example 120, (S)-3-benzamido-N-(2-methoxy-1-phenylethyl)-6,6-dimethylpyrrolo[3,4-c]pyrazole-5(1H,4H,6H)-carboxamide] came in with a Ki of 463 nM.

`CC1(C)c2[nH]nc(NC(=O)c3ccccc3)c2CN1C(=O)NC(CN1CCCC1)c1ccccc1` (centres unmarked) [Example 60, 3-(benzoylamino)-6,6-dimethyl-N-(1-phenyl-2-pyrrolidin-1-ylethyl)-4,6-dihydropyrrolo[3,4-c]pyrazole-5(1H)-carboxamide] had a Ki of 267 nM.

In turn, `COCC(=O)Nc1n[nH]c2c1CN(C(=O)O[C@H](CN(C)C)c1ccccc1)C2(C)C` [Example 14, (1S)-2-(dimethylamino)-1-phenylethyl 3-[(methoxyacetyl)amino]-6,6-dimethyl-4,6-dihydropyrrolo[3,4-c]pyrazole-5(1H)-carboxylate] registered a Ki of 356 nM.

The molecule `CCC(C(=O)Nc1n[nH]c2c1CN(C(=O)N[C@@H]1C[C@H]1c1ccccc1)C2(C)C)c1ccccc1` (relative stereo) [Example 107, 6,6-dimethyl-3-[(2-phenylbutanoyl)amino]-N-[trans-2-phenylcyclopropyl]-4,6-dihydropyrrolo[3,4-c]pyrazole-5(1H)-carboxamide] gave a Ki of 260 nM.

Consider `CN(C)C[C@H](c1ccccc1)N(C)C(=O)N1Cc2c(NC(=O)c3ccccc3)n[nH]c2C1(C)C` [Example 103, 3-(benzoylamino)-N-[(1S)-2-(dimethylamino)-1-phenylethyl]-N,6,6-trimethyl-4,6-dihydropyrrolo[3,4-c]pyrazole-5(1H)-carboxamide], for which the Ki was 512 nM.

`CN(C)[C@H](COC(=O)N1Cc2c(NC(=O)c3ccc(F)cc3)n[nH]c2C1(C)C)c1ccccc1` [Example 42, (S)-2-(dimethylamino)-2-phenylethyl 3-[(4-fluorobenzoyl)amino]-6,6-dimethyl-4,6-dihydropyrrolo[3,4-c]pyrazole-5(1H)-carboxylate] registered a Ki of 955 nM.

The molecule `Cc1ccc(Cl)c(C(=O)Nc2n[nH]c3c2CN(C(=O)N[C@H](CN(C)C)c2ccccc2)C3(C)C)c1F` [Example 110, (S)-3-(6-chloro-2-fluoro-3-methylbenzamido)-N-(2-(dimethylamino)-1-phenylethyl)-6,6-dimethylpyrrolo[3,4-c]pyrazole-5(1H,4H,6H)-carboxamide] came in with a Ki of 81.7 nM. Compared with the last molecule, the Ki is about 12-fold lower.

`CC1(C)c2[nH]nc(NC(=O)c3ccccc3)c2CN1C(=O)NC1CCN(Cc2ccccc2)C1` (centres unmarked) [Example 59, 3-(benzoylamino)-N-(1-benzylpyrrolidin-3-yl)-6,6-dimethyl-4,6-dihydropyrrolo[3,4-c]pyrazole-5(1H)-carboxamide] registered an inhibitory constant (Ki) of 448 nM. This Ki lies about 5.5-fold higher than the previous one.

The molecule `C[C@@H](CN(C)C)OC(=O)N1Cc2c(NC(=O)c3ccc(F)cc3F)n[nH]c2C1(C)C` [Example 37, (1S)-2-(dimethylamino)-1-methylethyl 3-[(2,4-difluorobenzoyl)amino]-6,6-dimethyl-4,6-dihydropyrrolo[3,4-c]pyrazole-5(1H)-carboxylate] had a Ki of 564 nM.

`COc1cc(C(=O)Nc2n[nH]c3c2CN(C(=O)N[C@H](CN(C)C)c2ccccc2)C3(C)C)nc(OC)n1` [Example 106, (S)-3-(2,4-dimethoxypyrimidine-6-carboxamido)-N-(2-(dimethylamino)-1-phenylethyl)-6,6-dimethylpyrrolo[3,4-c]pyrazole-5(1H,4H,6H)-carboxamide] showed a Ki of 412 nM. The Ki values of the last two molecules are within 1.5-fold of each other.

On to `CCC(=O)Nc1n[nH]c2c1CN(C(=O)O[C@H](CN(C)C)c1ccccc1)C2(C)C` [Example 118, (S)-2-(dimethylamino)-1-phenylethyl 6,6-dimethyl-3-propionamidopyrrolo[3,4-c]pyrazole-5(1H,4H,6H)-carboxylate], for which the affinity corresponds to a Ki of 226 nM.

`CCc1cc(C(=O)Nc2n[nH]c3c2CN(C(=O)N[C@H](CN(C)C)c2ccccc2)C3(C)C)no1` [Example 105, (S)-N-(2-(dimethylamino)-1-phenyl)-3-(5-ethylisoxazole-3-carboxamido)-6,6-dimethylpyrrolo [3,4-c]pyrazole-5(1H,4H,6H)-carboxamide] gave a Ki of 121 nM.

The molecule `CN(C)CC(CC(=O)N1Cc2c(NC(=O)c3ccc(F)cc3)n[nH]c2C1(C)C)c1ccccc1` (centres unmarked) [Example 66, N-{5-[4-(dimethylamino)-3-phenylbutanoyl]-6,6-dimethyl-1,4,5,6-tetrahydropyrrolo[3,4-c]pyrazol-3-yl}-4-fluorobenzamide] displayed a Ki of 556 nM.

In turn, `COc1ccc(CC(=O)Nc2n[nH]c3c2CN(C(=O)N[C@@H]2C[C@H]2c2ccccc2)C3(C)C)cc1` (relative stereo) [Example 101, 3-{[(4-methoxyphenyl)acetyl]amino}-6,6-dimethyl-N-[trans-2-phenylcyclopropyl]-4,6-dihydropyrrolo[3,4-c]pyrazole-5(1H)-carboxamide] returned a Ki of 113 nM.

For the origin of these results see US7884117B2, “Carbonylamino pyrrolopyrazoles, potent kinase inhibitors” (Pfizer Inc., priority 2005, dated 2011).
